Experimental data as given in patent publication US8445680B2, “Tetrahydrothieno pyridines” (Merck Sharp & Dohme Corp., priority 2008, dated 2013).
pIC50: −log10 of the molar value. Structures can show the parent of a compound that is named as a salt.

Target: T1, FLAG-tagged full length PHD2 (Homo sapiens, UniProt Q9GZT9)
T1 construct: FLAG-tagged full length PHD2; FLAG; made in house; host or cells: baculovirus-infected Sf9 cells
Experiment: PHD2 inhibition assay (time resolved fluorescence, HIF-1α peptide hydroxylation, VHL detection)
Assay type: biochemical
Details: 0.2 μM 2-oxoglutarate, 0.5 μM HIF-1α peptide, 2 hr at room temperature; read-out: PHD2 Activity (PHD2 binding activity expressed as IC50)
Procedure: To each well of a 96-well plate was added 1 μL of test compound in DMSO and 20 μl of assay buffer (50 mM Tris pH 7.4/0.01% Tween-20/0.1 mg/ml bovine serum albumin/10 μM ferrous sulfate/1 mM sodium ascorbate/20 μg/ml catalase) containing 0.15 μg/ml FLAG-tagged full length PHD2 expressed in and purified from baculovirus-infected Sf9 cells. After a 30 min preincubation at room temperature, the enzymatic reactions were initiated by the addition of 4 μL of substrates (final concentrations of 0.2 μM 2-oxoglutarate and 0.5 μM HIF-1α peptide biotinyl-[…]).

T1 sequence (Q9GZT9 whole entry): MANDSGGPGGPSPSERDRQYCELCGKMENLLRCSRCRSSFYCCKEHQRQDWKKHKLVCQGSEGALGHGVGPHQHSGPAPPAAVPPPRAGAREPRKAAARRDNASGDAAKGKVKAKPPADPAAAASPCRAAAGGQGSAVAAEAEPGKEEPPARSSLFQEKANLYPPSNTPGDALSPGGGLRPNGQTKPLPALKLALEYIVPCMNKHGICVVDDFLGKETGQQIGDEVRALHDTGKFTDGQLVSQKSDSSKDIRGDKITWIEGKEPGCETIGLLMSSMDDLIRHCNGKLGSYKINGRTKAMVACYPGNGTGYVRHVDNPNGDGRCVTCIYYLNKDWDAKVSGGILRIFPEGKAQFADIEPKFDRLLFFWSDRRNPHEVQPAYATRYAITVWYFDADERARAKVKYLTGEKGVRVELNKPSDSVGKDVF

Row | Compound | pIC50
1 | CCOc1ccc(-c2ccc(Cn3c4c(c(O)c(C(=O)NCC(=O)O)c3=O)CSC4)cc2)cc1 [Example 34, N-({1-[(4′-ethoxybiphenyl-4-yl)methyl]-4-hydroxy-2-oxo-1,2,5,7-tetrahydrothieno[3,4-b]pyridin-3-yl}carbonyl)glycine] | ≥ 8.00
2 | O=C(O)CNC(=O)c1c(O)c2c(n(Cc3ccc(-c4cccs4)cc3)c1=O)CSC2 [Example 35, N-({4-hydroxy-2-oxo-1-[4-(2-thienyl)benzyl]-1,2,5,7-tetrahydrothieno[3,4-b]pyridin-3-yl}carbonyl)glycine] | ≥ 8.00
3 | O=C(O)CNC(=O)c1c(O)c2c(n(Cc3ccc(-c4ccc(OC(F)(F)F)cc4)cc3)c1=O)CSC2 [Example 36, N-[(4-hydroxy-2-oxo-1-{[4′-(trifluoromethoxy)biphenyl-4-yl]methyl}-1,2,5,7-tetrahydrothieno[3,4-b]pyridin-3-yl)carbonyl]glycine] | ≥ 8.00
4 | CCN(CC)C(=O)c1ccccc1-c1ccc(Cn2c3c(c(O)c(C(=O)NCC(=O)O)c2=O)CSC3)cc1 [Example 37, N-{[1-({2′-[(diethylamino)carbonyl]biphenyl-4-yl}methyl)-4-hydroxy-2-oxo-1,2,5,7-tetrahydrothieno[3,4-b]pyridin-3-yl]carbonyl}glycine] | ≥ 8.00
5 | O=C(O)CNC(=O)c1c(O)c2c(n(-c3ccc(-c4ccc(OC(F)(F)F)cc4)cc3)c1=O)CSC2 [Example 38, N-({4-hydroxy-2-oxo-1-[4′-(trifluoromethoxy)biphenyl-4-yl]-1,2,5,7-tetrahydrothieno[3,4-b]pyridin-3-yl}carbonyl)glycine] | 7.00 to 8.00
6 | O=C(O)CNC(=O)c1c(O)c2c(n(Cc3ccc(-c4cccc(Cl)c4)nc3)c1=O)CSC2 [Example 39, N-[(l-{[6-(3-chlorophenyl)pyridinium-3-yl]methyl}-4-hydroxy-2-oxo-1,2,5,7-tetrahydrothieno[3,4-b]pyridin-3-yl)carbonyl]glycine trifluoroacetate] | ≥ 8.00
7 | O=C(O)CNC(=O)c1c(O)c2c(n(Cc3ccc(-c4ccc(F)cc4)nc3)c1=O)CSC2 [Example 40, N-[(1-{[6-(4-fluorophenyl)pyridinium-3-yl]methyl}-4-hydroxy-2-oxo-1,2,5,7-tetrahydrothieno[3,4-b]pyridin-3-yl)carbonyl]glycine trifluoroacetate] | ≥ 8.00
8 | O=C(O)CNC(=O)c1c(O)c2c(n(Cc3ccc(-c4ccccc4Cl)nc3)c1=O)CSC2 [Example 41, N-[(l-{[6-(2-chlorophenyl)pyridinium-3-yl]methyl}-4-hydroxy-2-oxo-1,2,5,7-tetrahydrothieno[3,4-b]pyridin-3-yl)carbonyl]glycine trifluoroacetate] | ≥ 8.00
9 | O=C(O)CNC(=O)c1c(O)c2c(n(Cc3ccc(-c4ccccc4F)nc3)c1=O)CSC2 [Example 43, N-[(l-{[6-(2-fluorophenyl)pyridin-3-yl]methyl}-4-hydroxy-2-oxo-1,2,5,7-tetrahydrothieno[3,4-b]pyridin-3-yl)carbonyl]glycine] | ≥ 8.00
10 | O=C(O)CNC(=O)c1c(O)c2c(n(Cc3ccc(-c4ccc(C(F)(F)F)cc4)nc3)c1=O)CSC2 [Example 44, N-{[4-hydroxy-2-oxo-1-({6-[4-(trifluoromethyl)phenyl]pyridinium-3-yl}methyl)-1,2,5,7-tetrahydrothieno[3,4-b]pyridin-3-yl]caxbonyl}glycine trifluoroacetate] | ≥ 8.00
11 | O=C(O)CNC(=O)c1c(O)c2c(n(Cc3ccc(-c4ccccc4C(F)(F)F)nc3)c1=O)CSC2 [Example 45, N-{[4-hydroxy-2-oxo-1-({6-[2-(trifluoromethyl)phenyl]pyridinium-3-yl}methyl)-1,2,5,7-tetrahydrothieno[3,4-b]pyridin-3-yl]carbonyl}glycine trifluoroacetate] | ≥ 8.00
12 | N#Cc1cccc(-c2ccc(Cn3c4c(c(O)c(C(=O)NCC(=O)O)c3=O)CSC4)cc2)c1 [Example 46, N-({1-[(3′-cyanobiphenyl-4-yl)methyl]-4-hydroxy-2-oxo-1,2,5,7-tetrahydrothieno[3,4-b]pyridin-3-yl}carbonyl)glycine] | ≥ 8.00
13 | CSc1ccccc1-c1ccc(Cn2c3c(c(O)c(C(=O)NCC(=O)O)c2=O)CSC3)cn1 [Example 47, N-{[4-hydroxy-1-({6-[2-(methylthio)phenyl]pyridinium-3-yl}methyl)-2-oxo-1,2,5,7-tetrahydrothieno[3,4-b]pyridin-3-yl]carbonyl}glycine trifluoroacetate] | ≥ 8.00
14 | Cc1ccccc1-c1ccc(Cn2c3c(c(O)c(C(=O)NCC(=O)O)c2=O)CSC3)cn1 [Example 48, N-[(4-hydroxy-1-{[6-(2-methylphenyl)pyridinium-3-yl-methyl}-2-oxo-1,2,5,7-tetrahydrothieno[3,4-b]pyridin-3-yl)carbonyl]glycine trifluoroacetate] | ≥ 8.00
15 | O=C(O)CNC(=O)c1c(O)c2c(n(Cc3ccc(-c4cccc(OC(F)(F)F)c4)nc3)c1=O)CSC2 [Example 49, N-{[4-hydroxy-2-oxo-1-({6-[3-(trifluoromethoxy)phenyl]pyridinium-3-yl}methyl)-1,2,5,7-tetrahydrothieno[3,4-b]pyridin-3-yl]carbonyl}glycine trifluoroacetate] | ≥ 8.00
16 | CCc1ccccc1-c1ccc(Cn2c3c(c(O)c(C(=O)NCC(=O)O)c2=O)CSC3)cn1 [Example 50, N-[(l-{[6-(2-ethylphenyl)pyridinium-3-yl]methyl}-4-hydroxy-2-oxo-1,2,5,7-tetrahydrothieno[3,4-b]pyridin-3-yl)carbonyl]glycine trifluoroacetate] | ≥ 8.00
17 | O=C(O)CNC(=O)c1c(O)c2c(n(Cc3ccc(-c4cc(F)ccc4F)nc3)c1=O)CSC2 [Example 51, N-[(l-{[6-(2,5-difluorophenyl)pyridinium-3-yl]methyl}-4-hydroxy-2-oxo-1,2,5,7-tetrahydrothieno[3,4-6]pyridin-3-yl)carbonyl]glycine trifluoroacetate] | ≥ 8.00
18 | O=C(O)CNC(=O)c1c(O)c2c(n(Cc3ccc(-c4cccc5ncccc45)cc3)c1=O)CSC2 [Example 52, N-{[4-hydroxy-2-oxo-1-(4-quinolinium-5-ylbenzyl)-1,2,5,7-tetrahydrothieno[3,4-b]pyridin-3-yl]carbonyl}glycine chloride] | ≥ 8.00
19 | O=C(O)CNC(=O)c1c(O)c2c(n(Cc3cnc(-c4ccccc4Cl)cn3)c1=O)CSC2 [Example 53, N-[(1-{[-5-(2-chlorophenyl)pyrazin-2-yl]methyl}-4-hydroxy-2-oxo-1,2,5,7-tetrahydrothieno[3,4-b]pyridin-3-yl)carbonyl]glycine] | ≥ 8.00
20 | Cc1ccccc1-c1cnc(Cn2c3c(c(O)c(C(=O)NCC(=O)O)c2=O)CSC3)cn1 [Example 54, N-[(4-hydroxy-1-{[5-(2-methylphenyl)pyrazin-2-yl]methyl}-2-oxo-1,2,5,7-tetrahydrothieno[3,4-b]pyridin-3-yl)carbonyl]glycine] | ≥ 8.00
21 | CSc1ccccc1-c1cnc(Cn2c3c(c(O)c(C(=O)NCC(=O)O)c2=O)CSC3)cn1 [Example 55, N-{[4-hydroxy-1-({5-[2-(methylthio)phenyl]pyrazin-2-yl}methyl)-2-oxo-1,2,5,7-tetrahydrothieno[3,4-b]pyridin-3-yl]carbonyl}glycine] | ≥ 8.00
22 | O=C(O)CNC(=O)c1c(O)c2c(n(Cc3cnc(-c4cc(F)ccc4F)cn3)c1=O)CSC2 [Example 56, N-[(l-{[5-(2,5-difluorophenyl)pyrazin-2-yl]methyl}-4-hydroxy-2-oxo-1,2,5,7-tetrahydrothieno[3,4-b]pyridin-3-yl)carbonyl]glycine] | ≥ 8.00
23 | O=C(O)CNC(=O)c1c(O)c2c(n(Cc3cnc(-c4ccccc4C(F)(F)F)cn3)c1=O)CSC2 [Example 57, N-{[4-hydroxy-2-oxo-1-({5-[2-(trifluoromethyl)phenyl]pyrazin-2-yl}methyl)-1,2,5,7-tetrahydrothieno[3,4-b]pyridin-3-yl]carbonyl}glycine] | ≥ 8.00
24 | Cc1ccc(-c2ccc(Cn3c4c(c(O)c(C(=O)NCC(=O)O)c3=O)CS(=O)(=O)C4)cc2)cc1 [Example 58, N-({4-hydroxy-1-[(4′-methylbiphenyl-4-yl)methyl]-6,6-dioxido-2-oxo-1,2,5,7-tetrahydrothieno[3,4-b]pyridin-3-yl}carbonyl)glycine] | ≥ 8.00
25 | Cc1ccc(-c2ccc(Cn3c4c(c(O)c(C(=O)NCC(=O)O)c3=O)C[S+]([O-])C4)cc2)cc1 (centres unmarked) [Example 59, N-({4-hydroxy-1-[(4′-methylbiphenyl-4-yl)methyl]-6-oxido-2-oxo-1,2,5,7-tetrahydrothieno[3,4-b]pyridin-3-yl}carbonyl)glycine] | ≥ 8.00
26 | O=C(O)CNC(=O)c1c(O)c2c(n(Cc3ccc(Cl)cc3)c1=O)CS(=O)(=O)C2 [Example 60, N-{[1-(4-chlorobenzyl)-4-hydroxy-6,6-dioxido-2-oxo-1,2,5,7-tetrahydrothieno[3,4-b]pyridin-3-yl]carbonyl}glycine] | ≥ 8.00
27 | CC(C)c1ccc(Cn2c3c(c(O)c(C(=O)NCC(=O)O)c2=O)CS(=O)(=O)C3)cc1 [Example 61, N-{[4-hydroxy-1-(4-isopropylbenzyl)-6,6-dioxido-2-oxo-1,2,5,7-tetrahydrothieno[3,4-b]pyridin-3-yl]carbonyl}glycine] | ≥ 8.00
28 | O=C(O)CNC(=O)c1c(O)c2c(n(Cc3nc(-c4ccccc4)cs3)c1=O)CS(=O)(=O)C2 [Example 62, N-({4-hydroxy-6,6-dioxido-2-oxo-1-[(4-phenyl-1,3-thiazol-2-yl)methyl]-1,2,5,7-tetrahydrothieno[3,4-b]pyridin-3-yl}carbonyl)glycine] | 7.00 to 8.00
29 | O=C(O)CNC(=O)c1c(O)c2c(n(Cc3ccc(C(F)(F)F)cc3)c1=O)CS(=O)(=O)C2 [Example 63, N-({4-hydroxy-6,6-dioxido-2-oxo-1-[4-(trifluoromethyl)benzyl]-1,2,5,7-tetrahydrothieno[3,4-6]pyridin-3-yl}carbonyl)glycine] | ≥ 8.00
